Non-standard residues stand in square brackets, D forms with d. Residues, ends and D or L forms follow the SMILES beside them. *: point of attachment. FITC = O=C1OC2(c3ccc(O)cc3Oc3cc(O)ccc32)c2ccc(NC(=S)*)cc21; Phe(4-Me) = Cc1ccc(C[C@H](N)C(=O)O)cc1
Legend:
Assay in all cases: BRET binding of FITC-VPM-p15
[1] = target: T1, Rluc-ADGRG2-ΔGPS-β I844A (Mus musculus, UniProt Q8CJ12, I858A); details: mutant I844A
T1 construct: expressed in transfected cells; host or cells: HEK293
Description: (§1) The binding capacities of ADGRG2 WT or its mutants for VPM-p15 were determined by BRET assay, which has been used in previous studies ([27], [28], [29]). We fused the N terminus of ADGRG2 with a Rluc fragment and coupled FITC to the C terminus of VPM-p15 to facilitate BRET measurement. We stimulated the HEK293 cells transfected with Rluc-ADGRG2-ΔGPS-β wildtype (WT) or mutants by increasing the concentration of FITC-conjugated VPM-p15, and their binding abilities were determined by fitting the data with the saturation curves.
(§2) In the detection of binding capacities of ADGRG2 WT or its mutants for VPM-p15, HEK293 cells were transfected with Rluc-ADGRG2-ΔGPS-β or mutants. Transfected cells were stimulated by increasing the concentration of FITC-conjugated VPM-p15. Binding capacities were determined by BRET, EC50 values of ADGRG2 WT and its mutants for binding VPM-p15 were calculated by GraphPad, and data were normalized by EC50 of WT.

[2] = target: T2, Rluc-ADGRG2-ΔGPS-β N667A (Mus musculus, UniProt Q8CJ12, N681A); details: mutant N667A
T2 construct: the entire ECD (including the entire GPS motif) was removed (ADGRG2-ΔGPS-β); expressed in transfected cells; host or cells: HEK293
Description: as §1, §2

[3] = target: T3, Rluc-ADGRG2-ΔGPS-β F828A (Mus musculus, UniProt Q8CJ12, F842A); details: mutant F828A
T3 construct: expressed in transfected cells; host or cells: HEK293
Description: as §1, §2

[4] = target: T4, Rluc-ADGRG2-ΔGPS-β F829A (Mus musculus, UniProt Q8CJ12, F843A); details: mutant F829A
T4 construct: expressed in transfected cells; host or cells: HEK293
Description: as §1, §2

[5] = target: T5, Rluc-ADGRG2-ΔGPS-β F772A (Mus musculus, UniProt Q8CJ12, F786A); details: mutant F772A
T5 construct: expressed in transfected cells; host or cells: HEK293
Description: as §1, §2

[6] = target: T6, Rluc-ADGRG2-ΔGPS-β Y765A (Mus musculus, UniProt Q8CJ12, Y779A); details: mutant Y765A
T6 construct: the entire ECD (including the entire GPS motif) was removed (ADGRG2-ΔGPS-β); expressed in transfected cells; host or cells: HEK293
Description: as §1, §2

[7] = target: T7, Rluc-ADGRG2-ΔGPS-β I741A (Mus musculus, UniProt Q8CJ12, I755A); details: mutant I741A
T7 construct: the entire ECD (including the entire GPS motif) was removed (ADGRG2-ΔGPS-β); expressed in transfected cells; host or cells: HEK293
Description: as §1, §2

[8] = target: T8, Rluc-ADGRG2-ΔGPS-β F838A (Mus musculus, UniProt Q8CJ12, F852A); details: mutant F838A
T8 construct: expressed in transfected cells; host or cells: HEK293
Description: as §1, §2

[9] = target: T9, Rluc-ADGRG2-ΔGPS-β T610A (Mus musculus, UniProt Q8CJ12, T624A); details: mutant T610A
T9 construct: the entire ECD (including the entire GPS motif) was removed (ADGRG2-ΔGPS-β); expressed in transfected cells; host or cells: HEK293
Description: as §1, §2

[10] = target: T10, Rluc-ADGRG2-ΔGPS-β I663A (Mus musculus, UniProt Q8CJ12, I677A); details: mutant I663A
T10 construct: the entire ECD (including the entire GPS motif) was removed (ADGRG2-ΔGPS-β); expressed in transfected cells; host or cells: HEK293
Description: as §1, §2

[11] = target: T11, Rluc-ADGRG2-ΔGPS-β F671A (Mus musculus, UniProt Q8CJ12, F685A); details: mutant F671A
T11 construct: the entire ECD (including the entire GPS motif) was removed (ADGRG2-ΔGPS-β); expressed in transfected cells; host or cells: HEK293
Description: as §1, §2

[12] = target: T12, Rluc-ADGRG2-ΔGPS-β Y666A (Mus musculus, UniProt Q8CJ12, Y680A); details: mutant Y666A
T12 construct: the entire ECD (including the entire GPS motif) was removed (ADGRG2-ΔGPS-β); expressed in transfected cells; host or cells: HEK293
Description: as §1, §2

[13] = target: T13, Rluc-ADGRG2-ΔGPS-β V769A (Mus musculus, UniProt Q8CJ12, V783A); details: mutant V769A
T13 construct: expressed in transfected cells; host or cells: HEK293
Description: as §1, §2

[14] = target: T14, Rluc-ADGRG2-ΔGPS-β F845A (Mus musculus, UniProt Q8CJ12, F859A); details: mutant F845A
T14 construct: expressed in transfected cells; host or cells: HEK293
Description: as §1, §2

[15] = target: T15, Rluc-ADGRG2-ΔGPS-β V768A (Mus musculus, UniProt Q8CJ12, V782A); details: mutant V768A
T15 construct: the entire ECD (including the entire GPS motif) was removed (ADGRG2-ΔGPS-β); expressed in transfected cells; host or cells: HEK293
Description: as §1, §2

[16] = target: T16, Rluc-ADGRG2-ΔGPS-β Y611A (Mus musculus, UniProt Q8CJ12, Y625A); details: mutant Y611A
T16 construct: the entire ECD (including the entire GPS motif) was removed (ADGRG2-ΔGPS-β); expressed in transfected cells; host or cells: HEK293
Description: as §1, §2

[17] = target: T17, Rluc-ADGRG2-ΔGPS-β F826A (Mus musculus, UniProt Q8CJ12, F840A); details: mutant F826A
T17 construct: expressed in transfected cells; host or cells: HEK293
Description: as §1, §2

[18] = target: T18, Rluc-ADGRG2-ΔGPS-β V762A (Mus musculus, UniProt Q8CJ12, V776A); details: mutant V762A
T18 construct: the entire ECD (including the entire GPS motif) was removed (ADGRG2-ΔGPS-β); expressed in transfected cells; host or cells: HEK293
Description: as §1, §2

[19] = Kd(mutated ADGRG2-ΔGPS-β)/Kd(WT)

T16 sequence (Q8CJ12 618-1009 Y625A limits assumed): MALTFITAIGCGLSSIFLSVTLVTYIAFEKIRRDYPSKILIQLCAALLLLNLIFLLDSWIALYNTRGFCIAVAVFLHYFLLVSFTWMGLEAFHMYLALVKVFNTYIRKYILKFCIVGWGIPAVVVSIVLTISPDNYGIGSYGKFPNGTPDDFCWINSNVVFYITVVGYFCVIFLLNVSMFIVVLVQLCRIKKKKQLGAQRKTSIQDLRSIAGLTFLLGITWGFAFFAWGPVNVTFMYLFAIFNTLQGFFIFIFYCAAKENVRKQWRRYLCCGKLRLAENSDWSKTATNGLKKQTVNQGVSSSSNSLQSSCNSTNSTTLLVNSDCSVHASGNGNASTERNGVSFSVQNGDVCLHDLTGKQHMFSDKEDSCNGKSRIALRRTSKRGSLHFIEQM
T14 sequence (Q8CJ12 614-1009 F859A): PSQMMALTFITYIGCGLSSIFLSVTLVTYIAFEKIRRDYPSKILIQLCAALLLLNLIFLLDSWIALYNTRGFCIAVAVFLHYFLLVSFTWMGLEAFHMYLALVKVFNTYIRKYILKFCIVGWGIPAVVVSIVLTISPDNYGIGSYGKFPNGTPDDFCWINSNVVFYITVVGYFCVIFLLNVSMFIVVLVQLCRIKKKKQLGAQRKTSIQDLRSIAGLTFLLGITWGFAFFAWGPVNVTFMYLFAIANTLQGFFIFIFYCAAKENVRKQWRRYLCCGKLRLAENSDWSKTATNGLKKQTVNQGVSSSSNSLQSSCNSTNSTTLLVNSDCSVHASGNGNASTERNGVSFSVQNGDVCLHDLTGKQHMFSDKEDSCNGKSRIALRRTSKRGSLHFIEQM
T1 sequence (Q8CJ12 614-1009 I858A): as the sequence (Q8CJ12 614-1009 F859A) above, with I245A, A246F counted along it
T8 sequence (Q8CJ12 614-1009 F852A): as the sequence (Q8CJ12 614-1009 F859A) above, with F239A, A246F counted along it
T15 sequence (Q8CJ12 618-1009 V782A limits assumed): as the sequence (Q8CJ12 618-1009 Y625A limits assumed) above, with A8Y, V165A counted along it
T6 sequence (Q8CJ12 618-1009 Y779A limits assumed): as the sequence (Q8CJ12 618-1009 Y625A limits assumed) above, with A8Y, Y162A counted along it
T13 sequence (Q8CJ12 614-1009 V783A): as the sequence (Q8CJ12 614-1009 F859A) above, with V170A, A246F counted along it
T7 sequence (Q8CJ12 618-1009 I755A limits assumed): as the sequence (Q8CJ12 618-1009 Y625A limits assumed) above, with A8Y, I138A counted along it
T9 sequence (Q8CJ12 618-1009 T624A limits assumed): as the sequence (Q8CJ12 618-1009 Y625A limits assumed) above, with T7A, A8Y counted along it
T18 sequence (Q8CJ12 618-1009 V776A limits assumed): as the sequence (Q8CJ12 618-1009 Y625A limits assumed) above, with A8Y, V159A counted along it
T4 sequence (Q8CJ12 614-1009 F843A): as the sequence (Q8CJ12 614-1009 F859A) above, with F230A, A246F counted along it
T2 sequence (Q8CJ12 618-1009 N681A limits assumed): as the sequence (Q8CJ12 618-1009 Y625A limits assumed) above, with A8Y, N64A counted along it
T17 sequence (Q8CJ12 614-1009 F840A): as the sequence (Q8CJ12 614-1009 F859A) above, with F227A, A246F counted along it
T5 sequence (Q8CJ12 614-1009 F786A): as the sequence (Q8CJ12 614-1009 F859A) above, with F173A, A246F counted along it
T11 sequence (Q8CJ12 618-1009 F685A limits assumed): as the sequence (Q8CJ12 618-1009 Y625A limits assumed) above, with A8Y, F68A counted along it
T12 sequence (Q8CJ12 618-1009 Y680A limits assumed): as the sequence (Q8CJ12 618-1009 Y625A limits assumed) above, with A8Y, Y63A counted along it
T3 sequence (Q8CJ12 614-1009 F842A): as the sequence (Q8CJ12 614-1009 F859A) above, with F229A, A246F counted along it
T10 sequence (Q8CJ12 618-1009 I677A limits assumed): as the sequence (Q8CJ12 618-1009 Y625A limits assumed) above, with A8Y, I60A counted along it

Q: With `CC[C@H](C)[C@H](NC(=O)CNC(=O)[C@H](Cc1ccc(C)cc1)NC(=O)[C@H](CO)NC(=O)[C@@H](N)C(C)C)C(=O)N[C@@H](CC(C)C)C(=O)N[C@@H](CC(C)C)C(=O)N[C@@H](CC(=O)O)C(=O)N[C@@H](CC(C)C)C(=O)N[C@@H](CO)C(=O)N[C@@H](CCCNC(=N)N)C(=O)N[C@H](C(=O)N[C@@H](CO)C(=O)N[C@@H](CC(C)C)C(=O)N1CCC[C@H]1C(=O)N[C@@H](CCCCNC(=S)Nc1ccc2c(c1)C(=O)OC21c2ccc(O)cc2Oc2cc(O)ccc21)C(=O)O)[C@@H](C)O` [FITC-VPM-p15] (H-VS[Phe(4-Me)]GILLDLSRTSLPK(FITC)-OH; N-terminus and C-terminus assumed) as the compound, how does the Fmut [1, 19] read?
A: 1.640

Q: And the Bmax ([1]; binding Bmax (BRET))?
A: 0.729±0.093

Q: What about the Fmut [2, 19] of the same compound?
A: 0.975

Q: What about the Bmax ([2]; binding Bmax (BRET)) of the same compound?
A: 0.803±0.028

Q: And the Fmut [3, 19]?
A: 1.247

Q: And the Bmax ([3]; binding Bmax (BRET))?
A: 0.706±0.006

Q: And the Fmut [4, 19]?
A: 0.344

Q: What about the Bmax ([4]; binding Bmax (BRET)) of the same compound?
A: 0.817±0.050

Q: And the Fmut [5, 19]?
A: 0.903

Q: What about the Bmax ([5]; binding Bmax (BRET)) of the same compound?
A: 0.795±0.021

Q: And the Fmut [6, 19]?
A: 0.967

Q: What about the Bmax ([6]; binding Bmax (BRET)) of the same compound?
A: 0.796±0.013

Q: And the Fmut [7, 19]?
A: 0.715

Q: What about the Bmax ([7]; binding Bmax (BRET)) of the same compound?
A: 0.775±0.093

Q: What about the Fmut [8, 19] of the same compound?
A: 0.819

Q: And the Bmax ([8]; binding Bmax (BRET))?
A: 0.793±0.022

Q: And the Fmut [9, 19]?
A: 1.197

Q: What about the Bmax ([9]; binding Bmax (BRET)) of the same compound?
A: 0.8072±0.024

Q: What about the Fmut [10, 19] of the same compound?
A: 0.825

Q: What about the Bmax ([10]; binding Bmax (BRET)) of the same compound?
A: 0.814±0.043

Q: What about the Fmut [11, 19] of the same compound?
A: 0.940

Q: And the Bmax ([11]; binding Bmax (BRET))?
A: 0.833±0.050

Q: And the Fmut [12, 19]?
A: 0.895

Q: What about the Bmax ([12]; binding Bmax (BRET)) of the same compound?
A: 0.809±0.029

Q: What about the Fmut [13, 19] of the same compound?
A: 1.145

Q: What about the Bmax ([13]; binding Bmax (BRET)) of the same compound?
A: 0.763±0.074

Q: And the Fmut [14, 19]?
A: 1.452

Q: What about the Bmax ([14]; binding Bmax (BRET)) of the same compound?
A: 0.749±0.071

Q: And the Fmut [15, 19]?
A: 1.112

Q: What about the Bmax ([15]; binding Bmax (BRET)) of the same compound?
A: 0.792±0.029

Q: And the Fmut [16, 19]?
A: 0.761

Q: And the Bmax ([16]; binding Bmax (BRET))?
A: 0.7912±0.020

Q: What about the Fmut [17, 19] of the same compound?
A: 1.248

Q: What about the Bmax ([17]; binding Bmax (BRET)) of the same compound?
A: 0.734±0.035

Q: And the Fmut [18, 19]?
A: 1.268

Q: What about the Bmax ([18]; binding Bmax (BRET)) of the same compound?
A: 0.798±0.021
